# Columns and labels:
# [1] = system: Ras farnesylation (viral Ha-ras p21) in the v-ras cell line; assay: In vivo ras farnesylation assay in the v-ras cell line; type: cell-based; conditions: v-ras cells; 4 hours at 37° C. then additional 20 hours with [35S]methionine; read-out: IC50, inhibition of Ras farnesylation in the v-ras cell line
# Procedure: The cell line used in this assay was the v-ras line, which expressed viral Ha-ras p21. The assay was performed essentially as described in DeClue, J. E. et. al., Cancer Research 51:712-717, (1991). Cells in 10 cm dishes at 50-75% confluency were treated with the test s compound (final concentration of solvent, methanol or dimethyl sulfoxide, was 0.1%). After 4 hours at 37° C., the cells were labelled in 3 ml methionine-free DMEM supplemented with 10% regular DMEM, 2% fetal bovine serum and 400 μCi[^35 S]methionine (1000 Ci/mmol). After an additional 20 hours, the cells were lysed in 1 ml lysis buffer (1% NP40/20 mM HEPES, pH 7.5/5 mM MgCl2 /1 mM DTT/10 μg/ml aprotinen/2 μg/ml leupeptin/2 μg/ml antipain/0.5 mM PMSF) and the lysates cleared by centrifugation at 100,000 × g for 45 min. Aliqouts of lysates containing equal numbers of acid-precipitable counts were bought to 1 ml with IP buffer (lysis buffer lacking DTT) and immunoprecipitated with the ras-specific monoclonal antibody Y13-259 (Furth, M. E. et. al., J. Virol. 43:294-304, (1982)). Following a 2 hour antibody incubation at 4° C., […] of a 25% suspension of protein A-Sepharose coated with rabbit anti rat IgG was added for 45 min. […]
# Ras farnesylation = conditions: Hancock et al., Casey et al., Schafer et al.; cited from earlier work
# Human FPTase = molecular target: T1, Human FPTase (Homo sapiens, UniProt P49354+P49356); assay: In vitro inhibition of ras farnesyl transferase, recombinant human FPTase, Ras-CVIM and [3H]-FPP; type: biochemical; conditions: 100 nM Ras-CVIM, 30 min, read-out: IC50, inhibition of RAS farnesylation (concentration giving 50% inhibition of FTase)
# T1 construct: made in house
# Bovine FPTase = molecular target: T2, Bovine FPTase (Bos taurus, UniProt P29702+P49355); assay: In vitro inhibition of ras farnesyl transferase, partially purified bovine FPTase, Ras-CVLS and [3H]-FPP; type: biochemical; conditions: 650 nM Ras-CVLS, pH 7.4, 31° C., 60 min, read-out: IC50, inhibition of RAS farnesylation (concentration giving 50% inhibition of FTase)
# T2 construct: Partially purified bovine FPTase; from tissue
# Procedure: Assays of farnesyl-protein transferase. Partially purified bovine FPTase and Ras peptides (Ras-CVLS, Ras-CVIM and RAS-CAIL) were prepared as described by Schaber et al., J. Biol. Chem. 265:14701-14704 (1990), Pompliano, et al., Biochemistry 31:3800 (1992) and Gibbs et at., PNAS U.S.A. 86:6630-6634 (1989), respectively. Bovine FPTase was assayed in a volume of 100 μl containing 100 mM N-(2-hydroxy ethyl) piperazine-N'-(2-ethane sulfonic acid) (HEPES), pH 7.4, 5 mM MgCl2, 5 mM dithiothreitol (DTT), […] [^3 H]-farnesyl diphosphate ([^3 H]-FPP; […], New England Nuclear), 650 nM Ras-CVLS and 10 μg/ml FPTase at 31° C. for 60 min. Reactions were initiated with FPTase and stopped with 1 ml of 1.0M HCL in ethanol. Precipitates were collected onto filter-mats using a TomTec Mach II cell harvestor, washed with 100% ethanol, dried and counted in an LKB β-plate counter. The assay was linear with respect to both substrates, FPTase levels and time; less than 10% of the [ ^3 H]-FPP was utilized during the reaction period. Purified compounds were dissolved in 100% dimethyl sulfoxide (DMSO) and were diluted 20-fold into the assay. Percentage inhibition is measured by the amount of incorporation of farnesyl in the presence of the test compound when compared to the amount of incorporation in the absence of the test compound.
Compound,IC50 [1] [nM],Inhibition of Ras farnesylation in vivo (Ras farnesylation),further results
CC[C@H](C)[C@@H](C(=O)N[C@H]1CCOC1=O)N(C)C[C@@H](NC[C@@H](N)CS)[C@@H](C)CC [N-[2(S)-(2(R)-Amino-3-mercaptopropylamino)-3(S)-methylpentyl]-N-methyl-isoleucyl-homoserine lactone],50000,,
CC[C@H](C)C(=O)O[C@H]1C[C@@H](C)C=C2C=C[C@H](C)[C@H](CC[C@@H]3C[C@@H](O)CC(=O)O3)[C@H]21 [lovastatin],,Inhibition of Ras farnesylation in vivo has been demonstrated,
CC[C@H](C)[C@@H](C(=O)N[C@@H](CCSC)C(=O)OC)N(C)C[C@@H](NC[C@@H](N)CS)[C@@H](C)CC [N-[2(S)-(2(R)-amino-3-mercaptopropylamino)-3(S)-methyl-pentyl]-N-methyl-isoleucyl-methionine methyl ester],5000,,
CC[C@H](C)[C@@H](C(=O)N[C@@H](CCSC)C(=O)O)N(C)C[C@@H](NC[C@@H](N)CS)[C@@H](C)CC [N-[2(S)-(2(R)-amino-3-mercaptopropylamino)-3(S)-methyl-pentyl]-N-methyl-isoleucyl-methionine],,,IC50 (Human FPTase): 20 nM
CC[C@H](C)[C@@H](C(=O)N[C@@H](CCO)C(=O)O)N(C)C[C@@H](NC[C@@H](N)CS)[C@@H](C)CC [N-[2(S)-(2(R)-Amino-3-mercaptopropylamino)-3(S)-methylpentyl]-N-methyl-isoleucyl-homoserine],,,IC50 (Bovine FPTase): 72 nM
CC[C@H](C)C(=O)O[C@H]1CCC=C2C=C[C@H](C)[C@H](CC[C@@H]3C[C@@H](O)CC(=O)O3)[C@H]21 [compactin],,Inhibition of Ras farnesylation in vivo has been demonstrated,

# From patent publication US5536750A, “Inhibitors of farnesyl-protein transferase” (Merck & Co., Inc., priority 1994, dated 1996)
